Experimental data from paper PMC8468270, “In Vitro Heme Coordination of a Dye-Decolorizing Peroxidase—The Interplay of Key Amino Acids, pH, Buffer and Glycerol” (International Journal of Molecular Sciences, 2021).

Target: T1, KpDyP (WT KpDyP) (Klebsiella pneumoniae, UniProt A0A0W8ATM9)
T1 construct: gene yfeX; homodimer; ferric heme; distal D143, R232, L246, F248, proximal H215
T1 sequence (A0A0W8ATM9 1-299): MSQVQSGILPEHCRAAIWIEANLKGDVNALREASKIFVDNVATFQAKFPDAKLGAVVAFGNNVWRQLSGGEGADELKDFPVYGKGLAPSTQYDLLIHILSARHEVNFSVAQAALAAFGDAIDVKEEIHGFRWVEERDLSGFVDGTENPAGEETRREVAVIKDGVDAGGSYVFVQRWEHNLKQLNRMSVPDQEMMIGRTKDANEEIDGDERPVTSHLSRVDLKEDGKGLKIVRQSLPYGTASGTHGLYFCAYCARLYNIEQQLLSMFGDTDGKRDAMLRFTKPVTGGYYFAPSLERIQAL
Experiment: X-band CW EPR of frozen solution
Format: binding
Conditions: glycine-KOH buffer 50 mM, pH 10.0, 10 K, no glycerol; heme iron distal ligand; seen only at low temperature, not at room temperature

Structure (SMILES): NCC(=O)O [glycine]
- X-band CW EPR of frozen solution: glycine binding is also observed for WT and R232A KpDyP at low temperature
